The values below come from patent US20100160314A1, “Small Molecule Inhibitors of Toll-Like Receptor 9” (priority 2006, published 2010).

Holding throughout (assay type): cell-based
Test [1] concerns the target T1, TLR8 (Homo sapiens, UniProt Q9NR97).
T1 construct: endogenous in cells; host or cells: freshly isolated human PBMC from donor buffy coats
T1 sequence (Q9NR97 27-1041): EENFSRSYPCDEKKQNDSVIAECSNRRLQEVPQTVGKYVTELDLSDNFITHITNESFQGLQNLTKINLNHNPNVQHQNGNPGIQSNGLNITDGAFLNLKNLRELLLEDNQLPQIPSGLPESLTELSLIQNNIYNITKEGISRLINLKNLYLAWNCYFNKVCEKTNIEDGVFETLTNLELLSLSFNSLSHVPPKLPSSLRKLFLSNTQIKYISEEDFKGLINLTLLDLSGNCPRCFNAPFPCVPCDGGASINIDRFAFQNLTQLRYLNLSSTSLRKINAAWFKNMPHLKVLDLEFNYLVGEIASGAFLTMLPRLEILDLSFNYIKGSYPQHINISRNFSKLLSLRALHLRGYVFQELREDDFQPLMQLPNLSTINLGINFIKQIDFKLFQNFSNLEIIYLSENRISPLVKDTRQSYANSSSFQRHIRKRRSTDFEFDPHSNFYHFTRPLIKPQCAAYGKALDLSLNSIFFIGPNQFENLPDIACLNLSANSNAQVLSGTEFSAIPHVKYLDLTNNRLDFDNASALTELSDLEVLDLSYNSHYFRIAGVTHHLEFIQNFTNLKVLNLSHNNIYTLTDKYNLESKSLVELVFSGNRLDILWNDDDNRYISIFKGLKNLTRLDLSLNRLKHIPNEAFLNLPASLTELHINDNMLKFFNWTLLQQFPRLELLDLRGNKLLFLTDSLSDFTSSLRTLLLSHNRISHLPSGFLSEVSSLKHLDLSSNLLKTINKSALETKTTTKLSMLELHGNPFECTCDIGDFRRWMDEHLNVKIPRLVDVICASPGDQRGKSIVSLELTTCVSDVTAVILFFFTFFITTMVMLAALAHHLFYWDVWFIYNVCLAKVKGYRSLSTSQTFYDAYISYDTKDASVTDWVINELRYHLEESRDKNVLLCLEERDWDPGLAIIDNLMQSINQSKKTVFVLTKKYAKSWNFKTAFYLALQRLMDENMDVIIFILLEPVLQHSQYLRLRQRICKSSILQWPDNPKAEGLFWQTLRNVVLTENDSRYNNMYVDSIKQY
The experiment in a line: Human PBMC, TNF-α release using ORN R-1362+DOTAP (TLR8 antagonism). The text has this: (§1) Peripheral blood mononuclear cell (PBMC) buffy coat preparations from healthy male and female human donors were obtained from the Institute for Hemostaseology and Transfusion Medicine of the University of Düsseldorf (Germany).
(§2) PBMC were purified by centrifugation over Ficoll-Hypaque (Sigma). Purified PBMC were washed twice with 1×PBS and resuspended in RPMI 1640 culture medium supplemented with 5% (v/v) heat-inactivated human AB serum (BioWhittaker, Belgium) or 10% (v/v) heat-inactivated fetal calf serum (FCS), 1.5 mM L-glutamine, 100 U/ml penicillin and […] streptomycin (all from Sigma, Deisenhofen, Germany).
(§3) Freshly isolated PBMC were resuspended at a concentration of 3×10^6/ml to 5×10^6/ml with RPMI 1640 culture medium and added to 96-well round-bottomed plates (150 μl/well) which had previously received nothing or selected concentrations (typically 10 μM-0.085 nM as 7-fold serial dilutions) of small molecule. To assay antagonist reaction for TLR9, 1 μM CpG oligodeoxynucleotide (ODN) 2395 ([…]; SEQ ID NO:3) was added to wells containing small molecules. To assay antagonist reaction for TLR7 and TLR8, 0.5 μM oligoribonucleotide (ORN) R-1362 ([…]; SEQ ID NO:4) complexed to 5 μg/ml DOTAP was added to wells containing small molecules. To calculate response to CpG ODN 2395 alone or ORN R-1362+DOTAP alone, wells without small molecules were stimulated with CpG ODN 2395 or ORN R-1362+DOTAP.
(§4) Cells were cultured in a humidified incubator at 37° C. for 16 h. Culture supernatants were then collected and, if not used immediately, frozen at −20° C. until required.
(§5) Amounts of cytokines in the supernatants were assessed using enzyme-linked immunosorbent assays (ELISA) specific for IFN-α or TNF-α using commercially available antibodies or kits from BD Pharmingen or Diaclone, respectively. IFN-α readout using CpG 2395 was used to measure TLR9 response. IFN-α readout using ORN R-1362+DOTAP was used to measure TLR7 response. TNF-α release using R-1362 complexed to DOTAP was used to measure TLR8-mediated immune response.

Test [2] addresses T2, TLR7 (Homo sapiens, UniProt Q9NYK1).
T2 construct: endogenous in cells; host or cells: freshly isolated human PBMC from donor buffy coats
T2 sequence (Q9NYK1 27-1049): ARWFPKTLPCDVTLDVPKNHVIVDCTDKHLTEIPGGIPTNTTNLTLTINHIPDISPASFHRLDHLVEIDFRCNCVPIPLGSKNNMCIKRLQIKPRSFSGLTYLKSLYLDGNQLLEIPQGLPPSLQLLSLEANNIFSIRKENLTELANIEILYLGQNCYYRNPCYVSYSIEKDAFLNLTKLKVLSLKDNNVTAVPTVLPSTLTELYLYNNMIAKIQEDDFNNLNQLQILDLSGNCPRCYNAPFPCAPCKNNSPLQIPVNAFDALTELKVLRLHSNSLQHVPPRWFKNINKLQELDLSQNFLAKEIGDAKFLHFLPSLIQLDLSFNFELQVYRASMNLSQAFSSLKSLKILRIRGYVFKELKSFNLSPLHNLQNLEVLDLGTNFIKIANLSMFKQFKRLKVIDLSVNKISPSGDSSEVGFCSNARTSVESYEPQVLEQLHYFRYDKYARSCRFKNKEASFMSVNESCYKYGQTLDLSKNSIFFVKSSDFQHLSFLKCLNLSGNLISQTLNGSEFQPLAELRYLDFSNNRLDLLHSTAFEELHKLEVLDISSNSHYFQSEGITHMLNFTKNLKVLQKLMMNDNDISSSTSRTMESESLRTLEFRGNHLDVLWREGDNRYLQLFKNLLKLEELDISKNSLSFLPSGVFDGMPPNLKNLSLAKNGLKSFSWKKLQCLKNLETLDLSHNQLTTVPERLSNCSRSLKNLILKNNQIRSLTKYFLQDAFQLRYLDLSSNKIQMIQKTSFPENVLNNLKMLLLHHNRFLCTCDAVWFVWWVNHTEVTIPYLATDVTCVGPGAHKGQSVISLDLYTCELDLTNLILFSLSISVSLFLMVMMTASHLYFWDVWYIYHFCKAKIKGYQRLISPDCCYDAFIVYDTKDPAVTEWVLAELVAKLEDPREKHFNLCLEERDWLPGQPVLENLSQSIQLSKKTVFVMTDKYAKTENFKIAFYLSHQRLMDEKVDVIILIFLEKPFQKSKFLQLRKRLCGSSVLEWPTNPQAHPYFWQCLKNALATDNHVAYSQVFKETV
The experiment in a line: Human PBMC, IFN-α readout using ORN R-1362+DOTAP (TLR7 antagonism).
Description: as §1, §2, §3, §4, §5

Test [3] addresses T3, TLR9 (Homo sapiens, UniProt Q9NR96).
T3 construct: endogenous in cells; host or cells: freshly isolated human PBMC from donor buffy coats
T3 sequence (Q9NR96 26-1032): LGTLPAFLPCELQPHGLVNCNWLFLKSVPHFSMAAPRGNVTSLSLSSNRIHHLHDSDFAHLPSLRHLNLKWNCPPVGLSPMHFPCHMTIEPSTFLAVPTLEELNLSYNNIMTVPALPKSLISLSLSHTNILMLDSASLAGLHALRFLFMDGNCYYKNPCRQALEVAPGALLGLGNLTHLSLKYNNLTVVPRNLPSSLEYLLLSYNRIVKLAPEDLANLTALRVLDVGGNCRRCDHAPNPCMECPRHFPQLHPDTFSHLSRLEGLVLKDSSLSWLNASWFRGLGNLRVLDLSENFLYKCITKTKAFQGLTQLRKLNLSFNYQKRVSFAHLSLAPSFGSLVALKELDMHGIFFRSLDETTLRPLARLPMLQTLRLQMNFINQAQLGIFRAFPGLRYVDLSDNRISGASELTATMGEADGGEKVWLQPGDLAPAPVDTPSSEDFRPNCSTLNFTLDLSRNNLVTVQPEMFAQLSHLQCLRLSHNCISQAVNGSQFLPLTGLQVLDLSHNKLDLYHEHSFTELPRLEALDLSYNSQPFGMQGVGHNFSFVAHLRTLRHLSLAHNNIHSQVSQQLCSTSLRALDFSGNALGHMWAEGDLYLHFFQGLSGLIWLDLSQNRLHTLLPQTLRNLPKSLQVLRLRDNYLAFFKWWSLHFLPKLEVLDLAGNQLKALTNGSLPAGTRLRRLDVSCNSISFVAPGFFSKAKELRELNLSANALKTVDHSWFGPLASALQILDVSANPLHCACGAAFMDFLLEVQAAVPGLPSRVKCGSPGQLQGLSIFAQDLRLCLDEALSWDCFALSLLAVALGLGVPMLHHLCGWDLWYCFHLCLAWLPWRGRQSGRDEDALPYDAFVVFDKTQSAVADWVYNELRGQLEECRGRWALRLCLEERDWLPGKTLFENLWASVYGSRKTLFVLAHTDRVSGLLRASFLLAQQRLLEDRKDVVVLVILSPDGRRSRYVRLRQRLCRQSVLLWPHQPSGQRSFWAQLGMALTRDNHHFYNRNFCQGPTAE
The experiment in a line: Human PBMC, IFN-α readout using CpG ODN 2395 (TLR9 antagonism).
Description: as §1, §2, §3, §4, §5

Setting [4] is: in vitro testing as described in Example 63, read-out: TLR8 IC50, Experimental.
The mark [5] stands for this setting: in vitro testing as described in Example 63, read-out: TLR7 IC50, Experimental.
Setting [6] is: in vitro testing as described in Example 63, read-out: TLR9 IC50, Experimental.

What is called IC50 is the concentration at which inhibition is half-maximal.

Like-named read-outs stand apart in the source and are kept apart here.

In the case of `CN1CCN(c2ccc3nc(-c4ccccc4)cc(NCCN4CCOCC4)c3c2)CC1` [5 (DI)], the half-maximal inhibitory concentration (IC50) in test [1] (setting [4]) was 28 nM; in test [2] (setting [5]), 75 nM; in test [3] (setting [6]), 72 nM.

Consider `CN1CCN(c2ccc(-c3cc(NCCN4CCOCC4)c4ncccc4n3)cc2)CC1` [6 (A3I)], for which the IC50 in test [1] (human PBMC, 0.5 μM ORN R-1362 + 5 μg/ml DOTAP, 16 h, TNF-α ELISA, read-out: IC50 TLR8, Experimental) amounted to 110 nM; in test [2] (human PBMC, 0.5 μM ORN R-1362 + 5 μg/ml DOTAP, 16 h, IFN-α ELISA, read-out: IC50 TLR7, Experimental) it was 720 nM; in test [3] (human PBMC, 1 μM CpG ODN 2395, 16 h, IFN-α ELISA, read-out: IC50 TLR9, Experimental), 73 nM.

On to `CN1CCN(c2ccc(-c3cc(NCCN4CCOCC4)c4ncccc4n3)cc2)CC1` [6 (BIV)], for which the IC50 in test [1] (setting [4]) was found to be 100 nM; in test [2] (setting [5]) it was 70 nM; in test [3] (setting [6]) it was 44 nM.

For the compound `CN1CCN(c2cc(NCCN3CCOCC3)c3cc(-c4ccccc4)ccc3n2)CC1` [6 (CI)], the IC50 in test [1] (setting [4]) is 600 nM; in test [2] (setting [5]) it was 200 nM; in test [3] (setting [6]), 200 nM.

For the compound `CN1CCN(c2ccc(-c3cc(NCCN4CCOCC4)c4ncccc4n3)cc2)CC1` [6 (CaI)], the IC50 in test [1] (setting [4]) turned out to be 140 nM; in test [2] (setting [5]), 790 nM; in test [3] (setting [6]) it was 250 nM.

Regarding `CN1CCN(c2ccc3nc(-c4ccccc4)nc(NCCN4CCOCC4)c3c2)CC1` [Compound 8 (Example 72)], the IC50 was 18 nM in test [1] (setting [4]), 76 nM in test [2] (setting [5]) and 78 nM in test [3] (setting [6]).
